Values of other authors as cited in patent publication US20030199496A1, “Pharmaceutical compositions containing alpha3beta4 nicotinic receptor antagonists and methods of their use” (priority 2002, published 2003).

System: Purkinje nerve cells

## COCC[C@H]1CC2CN3CCc4c([nH]c5ccccc45)[C@](C(=O)OC)(C2)[C@H]13 [18-MC, 18-methoxycoronaridine]
At certain doses
  neurotoxicity, especially on Purkinje nerve cells: devoid of these undesirable characteristics
Human and animal subjects
  tremors: devoid of these undesirable characteristics
